# Laboratory results reported in publication PMC8003416, “Modulation of Human Phenylalanine Hydroxylase by 3-Hydroxyquinolin-2(1H)-One Derivatives” (Biomolecules, 2021).
# T1: human phenylalanine hydroxylase (hPAH) (Homo sapiens, UniProt P00439)
# T1 construct: Recombinant full-length wild-type (WT) hPAH was expressed in E. coli Top10 cells in fusion with a hexa-histidyl peptide; made in house; host or cells: E. coli Top10
# T1 sequence (P00439 1-452): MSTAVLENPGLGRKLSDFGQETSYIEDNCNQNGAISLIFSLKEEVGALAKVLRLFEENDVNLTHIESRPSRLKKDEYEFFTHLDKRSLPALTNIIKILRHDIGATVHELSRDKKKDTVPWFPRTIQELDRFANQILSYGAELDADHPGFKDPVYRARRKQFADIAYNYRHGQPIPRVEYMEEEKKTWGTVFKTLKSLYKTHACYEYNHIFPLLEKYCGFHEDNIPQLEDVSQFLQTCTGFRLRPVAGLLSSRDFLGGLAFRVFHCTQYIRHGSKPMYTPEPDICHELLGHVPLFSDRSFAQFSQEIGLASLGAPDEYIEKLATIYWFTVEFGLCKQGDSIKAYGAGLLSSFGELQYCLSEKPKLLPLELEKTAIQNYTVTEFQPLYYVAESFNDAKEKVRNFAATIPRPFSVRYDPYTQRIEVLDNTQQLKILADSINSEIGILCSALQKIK
# How the values were obtained:
# hPAH = target: hPAH; parameters: method as in PMID 9843368; details: ref [36]; read-out: KD (high affinity binding to hPAH); cited from earlier work
# [1] = target: T1, human phenylalanine hydroxylase (hPAH); experiment: Differential scanning fluorimetry (thermal denaturation); format: binding; details: for effect on thermal stability of regulatory and catalytic domains (|ΔTm| ≥ 2 °C): 100 μM compound; for Tm1 (regulatory domain) / Tm2 (catalytic domain): 100 μM compound in 1% DMSO; for Tm1 (regulatory domain): control 43.4 ± 0.6; for Tm2 (catalytic domain): control 53.5 ± 0.4; for ΔTm1 (regulatory domain) / ΔTm2 (catalytic domain): 100 μM compound vs 1% DMSO control, * S.D. < 0.01
# Description: Thermal denaturation profiles of recombinant hPAH were obtained by differential scanning fluorimetry (DSF) in a C1000 Touch thermal cycler equipped with a CFX96 optical reaction module (Bio-Rad; Hercules, CA, USA) as previously described. Briefly, DSF assays (n = 3) were performed using 100 μg/mL hPAH tetramers (final concentration of 0.45 μM of tetramer), SYPRO Orange (5000-fold commercially available stock solution; Invitrogen; Carlsbad, CA, USA) at a 2.5-x final concentration and ramping the temperature from 20 to 90 °C, at 1 °C/min. Fluorescence data were acquired using the FRET channel. Data were processed using CFX Manager Software V3.0 (Bio-Rad) and the GraphPad Prism. Temperature scan curves were fitted to a biphasic dose–response function and the Tm values were obtained from the midpoint of the first (Tm1) and second transitions (Tm2) corresponding, respectively, to the thermal denaturation of the regulatory and catalytic domains. The Tm values in the presence of 3HQ were compared to those obtained in the presence of 1% DMSO (vehicle control) and a change in the Tm was considered significant when the |ΔTm| ≥ 2 °C [22].
# [2] = target: T1, human phenylalanine hydroxylase (hPAH); experiment: hPAH enzymatic activity assay (NA, 3HQ-A and Phe/3HQ-A conditions); format: biochemical; details: 100 μM compound; for fold activation by L-Phe (Phe/3HQ-A vs. 3HQ-A): 100 μM L-Phe; for hPAH activity vs respective control: all three conditions (NA, 3HQ-A, Phe/3HQ-A)
# Description: The hPAH activity was measured essentially as previously described. Briefly, the enzymatic reaction was performed in a 200 μL final volume, containing 250 mM Na-HEPES, pH 7, 0.1 mg/mL catalase (Sigma-Aldrich; St. Louis, MO, USA), 5 μg (final concentration of 0.112 μM of tetramer) of recombinant hPAH tetramers and 100 μM (NH4)2Fe(II)SO4. Using 100 μM L-Phe and 100 μM of tested compound, three experimental conditions were used to study the compounds’ modulatory effect, namely: non activated (NA), 3HQ-activated (3HQ-A) and substrate/3HQ-activated (Phe/3HQ-A) (Supplementary Figure S3). The reaction was started by addition of 75 μM BH4 (Schircks Laboratories; Bauma, Switzerland) prepared in 5 mM ascorbic acid. In the NA assay, the L-Phe substrate and tested compounds were added together with 75 µM BH4 at the start of the hydroxylation reaction. In the 3HQ-A condition, hPAH was pre-incubated with the tested compound for 4 min at 25 °C and the reaction was started by the addition of BH4 together with L-Phe. In the Phe/3HQ-A condition, hPAH was pre-incubated simultaneously with L-Phe and the tested compound (4 min, 25 °C). Appropriate control reactions were performed where the compounds were omitted and 1% DMSO was used. Kinetic parameters were determined using variable concentrations of L-Phe (25 to 2500 μM) and fixed concentrations of BH4 (75 μM) and tested compound (100 μM). After a 1-min incubation, the reaction was stopped, and the amount of L-Tyr produced was quantified by HPLC as previously described. The specific hPAH enzymatic activity is expressed as nmol of L-Tyr produced during 1 min per mg of protein (nmol L-Tyr.min^−1.mg^−1). The steady-state kinetic data were analyzed by nonlinear regression analysis using GraphPad Prism (La Jolla, CA, USA). Data was fitted to the modified Hill equation accounting for cooperative substrate binding as well as substrate inhibition (Equation (1)), to the modified Michaelis–Menten equation which accounts for substrate inhibition (Equation (2)) and to the non-modified Michaelis–Menten equation:v = (Vmax + Vi ([S]^x/Ki^x))/(1 + (K^h/[S]^h) + ([S]^x/Ki^x))(1) v = (Vmax [S])/(Km + [S](1 + [S]/Ki))(2)
# [3] = target: the molecule itself; experiment: SEC; HiLoad Superdex 200 HR column (1.6 x 60 cm), 20 mM Na-HEPES, 200 mM NaCl, pH 7.0, 0.7 mL/min, 4 °C; preparative isolation of the oligomeric form after affinity purification
molecule,measurement,setting,value
NC[C@H](O)c1ccc(O)c(O)c1 [noradrenaline],Kd,hPAH,< 1000 nM
CC(CCc1ccccc1)OC(=O)c1c(O)c(=O)[nH]c2ccc(OC(F)(F)F)cc12 (stereo not shown) [Compound 19],effect on thermal stability of regulatory and catalytic domains (|ΔTm| ≥ 2 °C),[1],destabilized the regulatory and catalytic domains
same,Tm1 (regulatory domain),[1],33.0 ± 0.3 °C
same,Tm2 (catalytic domain),[1],35.5 ± 0.1 °C
same,ΔTm1 (regulatory domain),[1],-10.4 ± 0.09 °C
O=C(NCc1ccccc1)c1c(O)c(=O)[nH]c2ccc(OC(F)(F)F)cc12 [Compound 6],Tm1 (regulatory domain),[1],42.5 ± 0.2 °C
same,Tm2 (catalytic domain),[1],53.0 ± 0.1 °C
same,ΔTm1 (regulatory domain),[1],-0.9 ± 0.01 °C
same,ΔTm2 (catalytic domain),[1],-0.5 ± 0.01 °C
O=C(c1c(O)c(=O)[nH]c2ccc(OC(F)(F)F)cc12)N1CCCC1 [Compound 15],Tm1 (regulatory domain),[1],44.5 ± 0.8 °C
same,Tm2 (catalytic domain),[1],53.3 ± 0.3 °C
same,ΔTm1 (regulatory domain),[1],+1.1 ± 0.02 °C
same,ΔTm2 (catalytic domain),[1],-0.2 ± 0.01 °C
COC(=O)[C@H](CC(C)C)NC(=O)c1c(O)c(=O)[nH]c2ccc(OC(F)(F)F)cc12 [Compound 10],Tm1 (regulatory domain),[1],43.1 ± 0.5 °C
same,Tm2 (catalytic domain),[1],53.4 ± 0.2 °C
same,ΔTm1 (regulatory domain),[1],-0.3 ± 0.01 °C
same,fold enzyme activation by compound (3HQ-A vs. NA),[2],0.9 fold
same,fold activation by L-Phe (Phe/3HQ-A vs. 3HQ-A),[2],1.4 fold
same,remaining activity at 100 µM,"[2]; NA (non-activated) condition, read-out: hPAH residual activity vs control",68%
CC(C)(C)OC(=O)c1c(O)c(=O)[nH]c2ccc(OC(F)(F)F)cc12 [Compound 17],Tm1 (regulatory domain),[1],44.6 ± 0.2 °C
same,Tm2 (catalytic domain),[1],53.7 ± 0.2 °C
same,ΔTm1 (regulatory domain),[1],+1.2 ± 0.01 °C
same,ΔTm2 (catalytic domain),[1],+0.2 ± 0.01 °C
CNC[C@H](O)c1ccc(O)c(O)c1 [adrenaline],Kd,hPAH,< 1000 nM
NCCc1ccc(O)c(O)c1 [dopamine],Kd,hPAH,< 1000 nM
O=C(c1c(O)c(=O)[nH]c2ccc(OC(F)(F)F)cc12)N1CCCCC1 [Compound 16],Tm1 (regulatory domain),[1],45.0 ± 1.9 °C
same,Tm2 (catalytic domain),[1],53.2 ± 0.8 °C
same,ΔTm1 (regulatory domain),[1],+1.7 ± 0.07 °C
same,ΔTm2 (catalytic domain),[1],-0.3 ± 0.01 °C
CCOC(=O)CNC(=O)c1c(O)c(=O)n(Cc2ccccc2)c2ccccc12 [Compound 13],Tm1 (regulatory domain),[1],44.6 ± 0.4 °C
same,Tm2 (catalytic domain),[1],53.5 ± 0.1 °C
same,ΔTm1 (regulatory domain),[1],+1.2 ± 0.01 °C
same,ΔTm2 (catalytic domain),[1],+0.1 ± 0.01 °C
same,fold enzyme activation by compound (3HQ-A vs. NA),[2],decreased enzyme activity
O=C(NCc1ccccc1)c1c(O)c(=O)n(Cc2ccccc2)c2ccccc12 [Compound 14],Tm1 (regulatory domain),[1],44.8 ± 0.1 °C
same,Tm2 (catalytic domain),[1],53.5 ± 0.1 °C
same,ΔTm1 (regulatory domain),[1],+1.4 ± 0.01 °C
same,ΔTm2 (catalytic domain),[1],+0.1 ± 0.01 °C
same,fold activation by L-Phe (Phe/3HQ-A vs. 3HQ-A),[2],did not allow substrate activation
O=C(CNC(=O)c1c(O)c(=O)[nH]c2ccc(OC(F)(F)F)cc12)OCc1ccccc1 [Compound 12],Tm1 (regulatory domain),[1],43.8 ± 0.1 °C
same,Tm2 (catalytic domain),[1],53.1 ± 0.1 °C
same,ΔTm1 (regulatory domain),[1],0.4 ± 0.01 °C
same,ΔTm2 (catalytic domain),[1],-0.4 ± 0.01 °C
same,fold enzyme activation by compound (3HQ-A vs. NA),[2],0.6 fold
same,fold activation by L-Phe (Phe/3HQ-A vs. 3HQ-A),[2],allowing substrate activation
CCOC(=O)[C@H](Cc1ccccc1)NC(=O)c1c(O)c(=O)[nH]c2ccccc12 [Compound 1],Tm1 (regulatory domain),[1],39.4 ± 1.0 °C
same,Tm2 (catalytic domain),[1],55.9 ± 0.2 °C
same,ΔTm1 (regulatory domain),[1],-3.9 ± 0.10 °C
same,ΔTm2 (catalytic domain),[1],+2.4 ± 0.01 °C
same,hPAH activity vs respective control,[2],high decreases in enzyme activity
O=C(Nc1ccccc1)c1c(O)c(=O)[nH]c2ccc(OC(F)(F)F)cc12 [Compound 5],effect on thermal stability of regulatory and catalytic domains (|ΔTm| ≥ 2 °C),[1],destabilized the regulatory and catalytic domains
same,Tm1 (regulatory domain),[1],38.7 ± 0.2 °C
same,Tm2 (catalytic domain),[1],42.3 ± 0.2 °C
same,ΔTm1 (regulatory domain),[1],-4.7 ± 0.02 °C
same,ΔTm2 (catalytic domain),[1],-11.2 ± 0.05 °C
CCOC(=O)[C@H](Cc1ccccc1)NC(=O)c1c(O)c(=O)n(Cc2ccccc2)c2ccc(OC(F)(F)F)cc12 [Compound 4],effect on thermal stability of regulatory and catalytic domains (|ΔTm| ≥ 2 °C),[1],destabilized the regulatory and catalytic domains
same,Tm1 (regulatory domain),[1],37.8 ± 1.9 °C
same,Tm2 (catalytic domain),[1],42.7 ± 0.3 °C
same,ΔTm1 (regulatory domain),[1],-5.6 ± 0.28 °C
same,ΔTm2 (catalytic domain),[1],-10.8 ± 0.08 °C
same,hPAH activity vs respective control,[2],high decreases in enzyme activity
CN(Cc1ccccc1)C(=O)c1c(O)c(=O)[nH]c2ccc(OC(F)(F)F)cc12 [Compound 7],Tm1 (regulatory domain),[1],43.3 ± 0.1 °C
same,Tm2 (catalytic domain),[1],53.7 ± 0.1 °C
same,ΔTm2 (catalytic domain),[1],+0.2 ± 0.01 °C
CCOC(=O)[C@H](Cc1ccccc1)NC(=O)c1c(O)c(=O)[nH]c2ccc(Cl)cc12 [Compound 2],effect on thermal stability of regulatory and catalytic domains (|ΔTm| ≥ 2 °C),[1],destabilized the regulatory and catalytic domains
same,Tm1 (regulatory domain),[1],35.6 ± 0.2 °C
same,Tm2 (catalytic domain),[1],43.0 ± 0.4 °C
same,ΔTm1 (regulatory domain),[1],-7.8 ± 0.04 °C
same,ΔTm2 (catalytic domain),[1],-10.5 ± 0.11 °C
same,hPAH activity vs respective control,[2],high decreases in enzyme activity
O=C(c1ccccc1)c1c(O)c(=O)[nH]c2ccc(OC(F)(F)F)cc12 [Compound 20],Tm1 (regulatory domain),[1],44.2 ± 0.1 °C
same,Tm2 (catalytic domain),[1],53.8 ± 0.1 °C
same,ΔTm1 (regulatory domain),[1],+0.8± 0.01 °C
same,ΔTm2 (catalytic domain),[1],+0.31± 0.01 °C
CC(OC(=O)c1c(O)c(=O)[nH]c2ccc(OC(F)(F)F)cc12)c1ccccc1 (stereo not shown) [Compound 18],effect on thermal stability of regulatory and catalytic domains (|ΔTm| ≥ 2 °C),[1],destabilized the regulatory and catalytic domains
same,Tm1 (regulatory domain),[1],40.0 ± 1.0 °C
same,Tm2 (catalytic domain),[1],44.0 ± 1.4 °C
same,ΔTm2 (catalytic domain),[1],-9.6 ± 0.31 °C
"Recombinant full-length wild-type human phenylalanine hydroxylase (enzyme, UniProt P00439 1-452, looked up, human phenylalanine hydroxylase (hPAH; EC 1.14.16.1), full-length wild type, expressed in fusion with a hexa-histidyl peptide; It gives a subunit mass of 55 kDa and an expected tetramer mass of 223 kDa; Non-heme iron sits in the catalytic site; also called hPAH; PAH; source: E. coli Top10, purified (IMAC on Ni-NTA agarose, then SEC to isolate tetramers)) MSTAVLENPGLGRKLSDFGQETSYIEDNCNQNGAISLIFSLKEEVGALAKVLRLFEENDVNLTHIESRPSRLKKDEYEFFTHLDKRSLPALTNIIKILRHDIGATVHELSRDKKKDTVPWFPRTIQELDRFANQILSYGAELDADHPGFKDPVYRARRKQFADIAYNYRHGQPIPRVEYMEEEKKTWGTVFKTLKSLYKTHACYEYNHIFPLLEKYCGFHEDNIPQLEDVSQFLQTCTGFRLRPVAGLLSSRDFLGGLAFRVFHCTQYIRHGSKPMYTPEPDICHELLGHVPLFSDRSFAQFSQEIGLASLGAPDEYIEKLATIYWFTVEFGLCKQGDSIKAYGAGLLSSFGELQYCLSEKPKLLPLELEKTAIQNYTVTEFQPLYYVAESFNDAKEKVRNFAATIPRPFSVRYDPYTQRIEVLDNTQQLKILADSINSEIGILCSALQKIK",stoichiometry N,[3],4
